Measurements reported in ChEMBL document CHEMBL4715869, “N-(Pyrimidin-2-yl)-1,2,3,4-tetrahydroisoquinolin-6-amine Derivatives as Selective Janus Kinase 2 Inhibitors for the Treatment of Myeloproliferative Neoplasms” (J Med Chem, 2020).

Columns and labels:
[1] = Inhibition of JAK2 V617F mutant in mouse BaF3 cells assessed as reduction in cell viability incubated for 72 hrs by MTT assay
[2] = test system: Receptor-type tyrosine-protein kinase FLT3 (Homo sapiens), P36888 [UNDEFINED MUTATION]; experiment: Inhibition of FLT3 ITD mutant in human MOLM13 cells assessed as residual activity at 100 nM relative to control; type: cell-based; details: MOLM-13
BaF3 = experiment: Antitumor activity against mouse BAF3 cells harboring JAK2 V617F mutant implanted in Balb/c mouse assessed as decrease in liver weight at 60 mg/kg, po qd administered starting from day 4 to 20 and measured on day 25 relative to control; type: functional; parameters: scale not given: the % may be the effect or the level left; details: time 21 day
SET-2 = experiment: Antitumor activity against human SET2 cells xenografted in NOD/SCID mouse assessed as tumor growth inhibition at 60 mg/kg, po qd administered for 16 days and measured every 2 days relative to control; type: functional; details: SET-2, po, 384 h, time 16 day, read-out: TGI

Receptor-type tyrosine-protein kinase FLT3 (Homo sapiens), P36888 [UNDEFINED MUTATION], sequence (P36888 whole entry, looked up, stated change not applied): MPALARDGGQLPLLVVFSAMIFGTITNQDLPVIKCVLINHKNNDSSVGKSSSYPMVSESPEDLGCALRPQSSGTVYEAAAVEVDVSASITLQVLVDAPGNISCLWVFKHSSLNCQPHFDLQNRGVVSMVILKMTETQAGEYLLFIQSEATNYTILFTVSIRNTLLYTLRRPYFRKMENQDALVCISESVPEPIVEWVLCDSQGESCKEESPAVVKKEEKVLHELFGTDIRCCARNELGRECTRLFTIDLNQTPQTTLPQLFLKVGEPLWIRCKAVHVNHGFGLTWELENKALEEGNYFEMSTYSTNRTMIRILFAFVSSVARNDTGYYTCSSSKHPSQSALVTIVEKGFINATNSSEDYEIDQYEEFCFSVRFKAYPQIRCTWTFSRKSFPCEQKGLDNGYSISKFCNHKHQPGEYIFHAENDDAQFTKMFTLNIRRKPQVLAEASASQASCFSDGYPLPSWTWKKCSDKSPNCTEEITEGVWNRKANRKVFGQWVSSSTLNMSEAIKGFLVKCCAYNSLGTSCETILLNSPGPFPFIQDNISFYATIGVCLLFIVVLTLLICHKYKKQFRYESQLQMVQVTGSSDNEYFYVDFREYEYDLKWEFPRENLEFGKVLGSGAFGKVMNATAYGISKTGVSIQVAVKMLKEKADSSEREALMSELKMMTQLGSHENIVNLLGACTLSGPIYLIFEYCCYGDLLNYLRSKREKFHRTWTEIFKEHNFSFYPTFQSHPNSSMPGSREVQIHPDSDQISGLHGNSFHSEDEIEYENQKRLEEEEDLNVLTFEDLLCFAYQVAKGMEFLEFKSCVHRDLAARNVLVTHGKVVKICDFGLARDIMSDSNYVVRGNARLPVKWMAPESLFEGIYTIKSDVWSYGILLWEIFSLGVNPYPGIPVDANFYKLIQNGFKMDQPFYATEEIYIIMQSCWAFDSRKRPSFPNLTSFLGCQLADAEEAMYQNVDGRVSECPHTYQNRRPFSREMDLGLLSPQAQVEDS

Activity [2] [%] | SMILES | IC50 [1] [nM] | Activity (BaF3) [%] | inhibition in vivo at 60 mg/kg (SET-2) [%]
5 | Cc1cnc(Nc2ccc(N3CCC(N(C)CCO)CC3)c(F)c2)nc1-c1cnn(C(C)C)c1 | 145 | – | –
– | N#CC[C@H](C1CCCC1)n1cc(-c2ncnc3[nH]ccc23)cn1 [RUXOLITINIB] | – | 80.4 | 52.8
